Results taken from patent US20240336608A1, “IL4I1 INHIBITORS AND METHODS OF USE” (Merck Sharp & Dohme LLC, priority 2023, published 2024).

Molecular target: T1, recombinant IL4I1 (Homo sapiens, UniProt Q96RQ9)
T1 construct: purchased R&D Systems 5684-AO-020
T1 sequence (Q96RQ9 22-567): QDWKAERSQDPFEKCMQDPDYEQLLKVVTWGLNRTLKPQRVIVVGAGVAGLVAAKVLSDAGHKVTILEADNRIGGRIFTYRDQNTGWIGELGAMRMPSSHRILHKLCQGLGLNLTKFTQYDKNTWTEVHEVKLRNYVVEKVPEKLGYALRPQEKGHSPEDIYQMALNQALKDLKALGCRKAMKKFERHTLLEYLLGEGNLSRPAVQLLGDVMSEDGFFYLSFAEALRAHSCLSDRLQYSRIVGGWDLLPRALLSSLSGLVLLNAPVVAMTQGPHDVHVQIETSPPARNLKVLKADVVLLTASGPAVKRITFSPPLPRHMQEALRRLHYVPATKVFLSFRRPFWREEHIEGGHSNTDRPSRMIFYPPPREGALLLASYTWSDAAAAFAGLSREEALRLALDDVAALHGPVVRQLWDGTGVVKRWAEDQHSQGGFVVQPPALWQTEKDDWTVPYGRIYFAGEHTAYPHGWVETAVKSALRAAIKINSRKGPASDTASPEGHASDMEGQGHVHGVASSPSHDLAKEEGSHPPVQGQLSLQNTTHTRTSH
Assay: IL4I1 Enzymatic Assay (Amplex Red/HRP coupled detection of H2O2, fluorescence)
Type: biochemical
Settings: 1 nM recombinant IL4I1; four-hour pre-incubation with compound; 1 mM each Phe, Tyr, Trp; ten-point titration
In short: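 H2O2 output was coupled to resorufin fluorescence (ex 544/em 590) via 0.05 mM Amplex Red and 1 U/mL HRP. Substrate: Phe, Tyr, Trp at 1 mM each; enzyme 1 nM, 4 h compound pre-incubation, 120 min reaction, pH 7.0 Hepes. EC50 by nonlinear four-parameter regression, 1:3 ten-point titration.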

O=C(NCc1nnc(-c2ccccc2)s1)c1cn(-c2cn[nH]c2)nn1 [Example 287, N-((5-phenyl-1,3,4-thiadiazol-2-yl)methyl)-1-(1H-pyrazol-4-yl)-1H-1,2,3-triazole-4-carboxamide]
EC50: 9 nM

Cc1nc(C)c(-n2cc(C(=O)NCc3nnc(-c4ccccc4)s3)nn2)s1 [Example 212, 1-(2,4-dimethylthiazol-5-yl)-N-((5-phenyl-1,3,4-thiadiazol-2-yl)methyl)-1H-1,2,3-triazole-4-carboxamide]
EC50: 882 nM

C[C@@H](C1COC1)n1cc(C(=O)NCc2nnc(-c3ccccc3)s2)nn1 [Example 148, (S)-1-(1-(oxetan-3-yl)ethyl)-N-((5-phenyl-1,3,4-thiadiazol-2-yl)methyl)-1H-1,2,3-triazole-4-carboxamide]
EC50: 164 nM

O=C(NCc1nnc(-c2ccccc2)s1)c1cn(Cc2ccccc2)nn1 [Example 241, 1-benzyl-N-((5-phenyl-1,3,4-thiadiazol-2-yl)methyl)-1H-1,2,3-triazole-4-carboxamide]
EC50: 11 nM

Cc1ccc(-n2cc(C(=O)NCc3nnc(-c4ccccc4C)s3)nn2)c(C)n1 [Example 107, 1-(2,6-dimethylpyridin-3-yl)-N-((5-(o-tolyl)-1,3,4-thiadiazol-2-yl)methyl)-1H-1,2,3-triazole-4-carboxamide]
EC50: 58 nM

O=C(NCc1cc(-c2ccncc2)no1)c1cn(C2CC2)nn1 [Example 284, 1-cyclopropyl-N-((3-(pyridin-4-yl)isoxazol-5-yl)methyl)-1H-1,2,3-triazole-4-carboxamide]
EC50: 74 nM

Cc1[nH]nc(C(=O)NCc2nnc(-c3ccccc3)s2)c1F [Example 46, 4-fluoro-5-methyl-N-[(5-phenyl-1,3,4-thiadiazol-2-yl)methyl]-1H-pyrazole-3-carboxamide]
EC50: 92 nM

Cn1cc(C(=O)NCc2nnc(-c3ccccc3)s2)nn1 [Example 19, 1-methyl-N-[(5-phenyl-1,3,4-thiadiazol-2-yl)methyl]triazole-4-carboxamide]
EC50: 18 nM

Cc1ccc(-n2cc(C(=O)NCc3ccc(-c4ccccc4F)nn3)nn2)c(C)n1 [Example 116, 1-(2,6-dimethylpyridin-3-yl)-N-((6-(2-fluorophenyl)pyridazin-3-yl)methyl)-1H-1,2,3-triazole-4-carboxamide]
EC50: 74 nM

CC(C)(C)OC(=O)N1CC(n2cc(C(=O)NCc3nnc(-c4ccccc4)s3)nn2)C1 [Example 69, tert-butyl 3-(4-(((5-phenyl-1,3,4-thiadiazol-2-yl)methyl)carbamoyl)-1H-1,2,3-triazol-1-yl)azetidine-1-carboxylate]
EC50: 9 nM

C[C@@H](O)[C@H](CO)n1cc(C(=O)NCc2nnc(-c3ccccc3)s2)nn1 [Example 187, 1-((2S,3R)-1,3-dihydroxybutan-2-yl)-N-((5-phenyl-1,3,4-thiadiazol-2-yl)methyl)-1H-1,2,3-triazole-4-carboxamide]
EC50: 196 nM

CNC(=O)Cn1cc(C(=O)NCc2nnc(-c3ccccc3)s2)nn1 [Example 81, 1-(2-(methylamino)-2-oxoethyl)-N-((5-phenyl-1,3,4-thiadiazol-2-yl)methyl)-1H-1,2,3-triazole-4-carboxamide]
EC50: 6 nM

Cc1ncccc1-n1cc(C(=O)NCc2nnc(-c3ccccc3)s2)nn1 [Example 315, 1-(2-methylpyridin-3-yl)-N-((5-phenyl-1,3,4-thiadiazol-2-yl)methyl)-1H-1,2,3-triazole-4-carboxamide]
EC50: 86 nM

CC(O)c1cc(C(=O)NCc2nnc(-c3ccccc3)s2)on1 (single isomer, unassigned) [Example 329, 3-(1-hydroxyethyl)-N-((5-phenyl-1,3,4-thiadiazol-2-yl)methyl)isoxazole-5-carboxamide]
EC50: 149 nM

O=C(NCc1cc(-c2ccccc2)no1)c1cn(C2COC2)nn1 [Example 253, 1-(oxetan-3-yl)-N-((3-phenylisoxazol-5-yl)methyl)-1H-1,2,3-triazole-4-carboxamide]
EC50: 209 nM

N#CCCn1cc(C(=O)NCc2nnc(-c3ccccc3)s2)nn1 [Example 71, 1-(2-cyanoethyl)-N-((5-phenyl-1,3,4-thiadiazol-2-yl)methyl)-1H-1,2,3-triazole-4-carboxamide]
EC50: 11 nM

O=C(NCc1nnc(-c2ccccc2)s1)c1cn(C[C@H](F)CO)nn1 [Example 302, (S)-1-(2-fluoro-3-hydroxypropyl)-N-((5-phenyl-1,3,4-thiadiazol-2-yl)methyl)-1H-1,2,3-triazole-4-carboxamide]
EC50: 5 nM

C[C@@H](CO)Cn1cc(C(=O)NCc2nnc(-c3ccccc3)s2)nn1 [Example 75, (R)-1-(3-hydroxy-2-methylpropyl)-N-((5-phenyl-1,3,4-thiadiazol-2-yl)methyl)-1H-1,2,3-triazole-4-carboxamide]
EC50: 17 nM

Cc1ccc(-n2cc(C(=O)NCc3cc(-c4ccccc4Cl)no3)nn2)c(C)n1 [Example 220, N-{[3-(2-chlorophenyl)-1,2-oxazol-5-yl]methyl}-1-(2,6-dimethylpyridin-3-yl)-1H-1,2,3-triazole-4-carboxamide]
EC50: 195 nM

Cn1cc(C(=O)NCc2nnc(-c3cn[nH]c3)s2)nn1 [Example 299, N-((5-(1H-pyrazol-4-yl)-1,3,4-thiadiazol-2-yl)methyl)-1-methyl-1H-1,2,3-triazole-4-carboxamide]
EC50: 215 nM

Cc1cc(C(=O)NCc2nnc(-c3ccccc3)s2)no1 [Example 23, 5-methyl-N-[(5-phenyl-1,3,4-thiadiazol-2-yl)methyl]isoxazole-3-carboxamide]
EC50: 207 nM

O=C(NCc1nnc(-c2ccccc2)s1)c1cn(CCN2CCNC2=O)nn1 [Example 125, 1-(2-(2-oxoimidazolidin-1-yl)ethyl)-N-((5-phenyl-1,3,4-thiadiazol-2-yl)methyl)-1H-1,2,3-triazole-4-carboxamide]
EC50: 453 nM

CC(C)(O)c1cc(C(=O)NCc2ccc(-c3ccccc3)nn2)on1 [Example 254, 3-(2-hydroxypropan-2-yl)-N-((6-phenylpyridazin-3-yl)methyl)isoxazole-5-carboxamide]
EC50: 995 nM

Cn1ccc(C(=O)NCc2nnc(-c3ccccc3)s2)n1 [Example 14, 1-methyl-N-[(5-phenyl-1,3,4-thiadiazol-2-yl)methyl]pyrazole-3-carboxamide]
EC50: 291 nM

CCc1ccc(-n2cc(C(=O)NCc3nnc(-c4ccccc4)s3)nn2)c(C)n1 [Example 336, 1-(6-ethyl-2-methylpyridin-3-yl)-N-((5-phenyl-1,3,4-thiadiazol-2-yl)methyl)-1H-1,2,3-triazole-4-carboxamide]
EC50: 9 nM

Cc1ccc(-n2cc(C(=O)NCc3nnc(-c4ccsc4C)s3)nn2)c(C)n1 [Example 109, 1-(2,6-dimethylpyridin-3-yl)-N-((5-(2-methylthiophen-3-yl)-1,3,4-thiadiazol-2-yl)methyl)-1H-1,2,3-triazole-4-carboxamide]
EC50: 29 nM

O=C(NCc1nnc(-c2ccccc2)s1)c1cc(CO)n[nH]1 [Example 4, 3-(hydroxymethyl)-N-((5-phenyl-1,3,4-thiadiazol-2-yl)methyl)-1H-pyrazole-5-carboxamide]
EC50: 69 nM

Cn1c(C(=O)NCc2nnc(-c3ccccc3)s2)cc2ccccc21 [Example 54, 1-methyl-N-((5-phenyl-1,3,4-thiadiazol-2-yl)methyl)-1H-indole-2-carboxamide]
EC50: 322 nM

O=C(NCc1nnc(-c2ccccc2)s1)c1cn(-c2ccccn2)nn1 [Example 310, N-((5-phenyl-1,3,4-thiadiazol-2-yl)methyl)-1-(pyridin-2-yl)-1H-1,2,3-triazole-4-carboxamide]
EC50: 182 nM

Cc1oc(C)c(C(=O)NCc2nnc(-c3ccccc3)s2)c1C [Example 40, 2,4,5-trimethyl-N-[(5-phenyl-1,3,4-thiadiazol-2-yl)methyl]furan-3-carboxamide]
EC50: 266 nM

CC(C)(O)c1cc(C(=O)NCc2cc(-c3ccccc3)no2)on1 [Example 247, 3-(2-hydroxypropan-2-yl)-N-((3-phenylisoxazol-5-yl)methyl)isoxazole-5-carboxamide]
EC50: 916 nM

N#CC1(n2cc(C(=O)NCc3nnc(-c4ccccc4)s3)nn2)CC1 [Example 160, 1-(1-cyanocyclopropyl)-N-((5-phenyl-1,3,4-thiadiazol-2-yl)methyl)-1H-1,2,3-triazole-4-carboxamide]
EC50: 36 nM

O=C(NCc1nnc(-c2ccccc2)s1)c1cn(CC2CCCCO2)nn1 (centres unmarked) [Example 83, N-((5-phenyl-1,3,4-thiadiazol-2-yl)methyl)-1-((tetrahydro-2H-pyran-2-yl)methyl)-1H-1,2,3-triazole-4-carboxamide]
EC50: 361 nM

O=C(NCc1nnc(-c2ccccc2)s1)c1cn([C@@H]2CC(=O)N(C3CC3)C2)nn1 [Example 182, (R)-1-(1-cyclopropyl-5-oxopyrrolidin-3-yl)-N-((5-phenyl-1,3,4-thiadiazol-2-yl)methyl)-1H-1,2,3-triazole-4-carboxamide]
EC50: 610 nM

CCn1cc(C(=O)NCc2nnc(-c3ccccc3)s2)nn1 [Example 72, 1-ethyl-N-((5-phenyl-1,3,4-thiadiazol-2-yl)methyl)-1H-1,2,3-triazole-4-carboxamide]
EC50: 3 nM
